Test results reported in patent US11345912B2, “Directed evolution of multivalent glycopeptides that tightly bind to target proteins” (Brandeis University, priority 2013, dated 2022).
*1 amine or outer side, *2 acyl side, *3 side chain or, on linkers, in order; H or OH if unused. [ ]: non-standard residue; d: D form. The star is where a group is joined. X1 = O=C([C@H](CCc1cn(C2CCC(OC3O[C@H](CO[C@H]4O[C@H](CO[C@H]5O[C@H](CO)[C@@H](O)[C@H](O)[C@@H]5O[C@H]5O[C@H](CO)[C@@H](O)[C@H](O)[C@@H]5O)[C@@H](O)[C@H](O[C@H]5O[C@H](CO)[C@@H](O)[C@H](O)[C@@H]5O[C@H]5O[C@H](CO)[C@@H](O)[C@H](O)[C@@H]5O)[C@@H]4O)[C@@H](O)[C@H](O[C@H]4O[C@H](CO)[C@@H](O)[C@H](O)[C@@H]4O[C@H]4O[C@H](CO)[C@@H](O)[C@H](O)[C@@H]4O[C@H]4O[C@H](CO)[C@@H](O)[C@H](O)[C@@H]4O)[C@@H]3O)CC2)nn1)N[*:1])[*:2]; For = O=C*

Tested on: 2G12
Experiment: Binding curve and KD determination of 2G12-glycopeptide interaction (radiolabeled glycopeptide, protein G magnetic bead capture, scintillation counting)
Method: The resulting mRNAs were purified by denaturing PAGE or MEGAclear kit (Ambion), and 1 μM RNA was used in PURE system translation (reaction volume of translation varied). Typically, 25 μL of translated reaction was diluted with 100 μL of binding buffer (50 mM Tris-HCl, pH 7.8, 300 mM NaCl, 5 mM β-mercaptoethanol) and 25 μL of Ni-NTA agarose suspension (Qiagen), and tumbled at room temperature for 1 h. The resins were transferred to 0.22 μm spin-filter rinsing with 100 μL of bind buffer, and washed with 3×200 μL of bind buffer and 2×200 μL of wash buffer (50 mM Tris-HCl, pH 7.8, 5 mM β-mercaptoethanol). The bound peptides were eluted with 2×25 μL of 0.1% TFA. The eluted peptides were analyzed by MALDI-TOF MS, using α-Cyano-4-hydroxycinnamic acid matrix (Sigma), with or without desalting with ZipTip C18 resin (Millipore). For calibration of MALDI-TOF-MS, at least two of the following standards, bovine insulin, E. coli thioredoxin and/or horse apomyoglobin were used. To quantitate peptide yields, the radioactivities were measured by liquid scintillation counting. For the click reaction, the translated and purified peptides were mixed with 0.1% (v/v) Triton X-100, and then dialyzed against H2O containing 0.1% (v/v) Triton X-100 using Slide-A-Lyzer MINI Dialysis Devices, 3.5K MWCO (Thermo Scientific) overnight to desalt. After dialysis, the peptides were divided into two portions: one was glycosylated via the click reaction, while the other was saved as a non-glycosylated peptide control. […] The glycosylated peptide (<4 pmol) was incubated with 100 nM 2G12 in selection buffer (40 μL) at room temp. The solution was then tumbled 30 min with 0.12 mg of equilibrated Dynabeads Protein G to capture 2G12-glycopeptide complex. Beads were then washed with 3×40 μL of selection buffer and resuspended in 10 μL of selection buffer. The resuspended beads were heated at 70° C. for 30 min to denature 2G12 and elute glycopeptides, chilled on ice for 5 min, and tumbled at room temperature for 10 min. The magnetically isolated supernatant was recovered and the beads were rinsed with 10 μL of selection buffer.
Then, the solution was added to 0.12 mg of pre-equilibrated Dynabeads Protein G and tumbled at room temperature for 30 min. The supernatant was removed and the beads were washed with 3×40 μL of selection buffer. The radioactivities of the supernatant and wash solutions were measured by liquid scintillation counting as unbound fractions. […] The beads were resuspended in 40 μL of selection buffer, heated at 70° C. for 30 min to elute the bound glycopeptides, chilled on ice for 5 min, and tumbled at room temperature for 10 min. The supernatant was removed, and the beads were washed with 40 μL of selection buffer and resuspended in 40 μL of selection buffer. The radioactivities of these solutions and suspensions were measured by liquid scintillation counting separately and the values were combined as apparent bound fractions. […] All experiments were done at least in triplicate. KDs were calculated as described in the footnote of Table 4 (below).

[1] = Table 4, maximal fraction bound from curve fit, error = standard error of fit
[2] = Table 4, ribosomally translated radiolabeled glycopeptide with His6/FLAG tag, room temperature, fit Fbound=(Fmax[2G12])/(KD+[2G12]), error = standard error of fit

| Compound | Fmax [%] [1] | Kd [2] | Fmax [%] (Table 6 mutational analysis, radioactive bead binding assay) | Kd (Table 6 mutational analysis, radioactive bead binding assay, ribosomally translated) |
| --- | --- | --- | --- | --- |
| CC[C@H](C)[C@H](NC(=O)[C@H](CO)NC(=O)[C@@H](NC(=O)[C@H](CCc1cn(C2CCC(OC3O[C@H](CO[C@H]4O[C@H](CO[C@H]5O[C@H](CO)[C@@H](O)[C@H](O)[C@@H]5O[C@H]5O[C@H](CO)[C@@H](O)[C@H](O)[C@@H]5O)[C@@H](O)[C@H](O[C@H]5O[C@H](CO)[C@@H](O)[C@H](O)[C@@H]5O[C@H]5O[C@H](CO)[C@@H](O)[C@H](O)[C@@H]5O)[C@@H]4O)[C@@H](O)[C@H](O[C@H]4O[C@H](CO)[C@@H](O)[C@H](O)[C@@H]4O[C@H]4O[C@H](CO)[C@@H](O)[C@H](O)[C@@H]4O[C@H]4O[C@H](CO)[C@@H](O)[C@H](O)[C@@H]4O)[C@@H]3O)CC2)nn1)NC=O)[C@@H](C)O)C(=O)N1CCC[C@H]1C(=O)N[C@@H](Cc1ccc(O)cc1)C(=O)N[C@H](C(=O)N[C@@H](Cc1ccc(O)cc1)C(=O)N[C@@H](CC(C)C)C(=O)N[C@@H](CC(N)=O)C(=O)N[C@@H](CCCNC(=N)N)C(=O)N[C@@H](CO)C(=O)N[C@@H](CC(C)C)C(=O)N[C@@H](Cc1c[nH]c2ccccc12)C(=O)N[C@H](C(=O)N[C@@H](CC(N)=O)C(=O)N[C@@H](Cc1ccc(O)cc1)C(=O)N[C@@H](CCCNC(=N)N)C(=O)N[C@H](C(=O)N[C@@H](CC(N)=O)C(=O)N[C@@H](CO)C(=O)N[C@@H](Cc1c[nH]c2ccccc12)C(=O)N[C@@H](CO)C(=O)N[C@@H](CCc1cn(C2CCC(OC3O[C@H](CO[C@H]4O[C@H](CO[C@H]5O[C@H](CO)[C@@H](O)[C@H](O)[C@@H]5O[C@H]5O[C@H](CO)[C@@H](O)[C@H](O)[C@@H]5O)[C@@H](O)[C@H](O[C@H]5O[C@H](CO)[C@@H](O)[C@H](O)[C@@H]5O[C@H]5O[C@H](CO)[C@@H](O)[C@H](O)[C@@H]5O)[C@@H]4O)[C@@H](O)[C@H](O[C@H]4O[C@H](CO)[C@@H](O)[C@H](O)[C@@H]4O[C@H]4O[C@H](CO)[C@@H](O)[C@H](O)[C@@H]4O[C@H]4O[C@H](CO)[C@@H](O)[C@H](O)[C@@H]4O)[C@@H]3O)CC2)nn1)C(=O)N[C@@H](CO)C(=O)N[C@@H](CCCCN)C(=O)N[C@@H](CC(N)=O)C(=O)N[C@H](C(=O)N[C@@H](CC(N)=O)C(=O)N[C@H](C(=O)N[C@@H](CCc1cn(C2CCC(OC3O[C@H](CO[C@H]4O[C@H](CO[C@H]5O[C@H](CO)[C@@H](O)[C@H](O)[C@@H]5O[C@H]5O[C@H](CO)[C@@H](O)[C@H](O)[C@@H]5O)[C@@H](O)[C@H](O[C@H]5O[C@H](CO)[C@@H](O)[C@H](O)[C@@H]5O[C@H]5O[C@H](CO)[C@@H](O)[C@H](O)[C@@H]5O)[C@@H]4O)[C@@H](O)[C@H](O[C@H]4O[C@H](CO)[C@@H](O)[C@H](O)[C@@H]4O[C@H]4O[C@H](CO)[C@@H](O)[C@H](O)[C@@H]4O[C@H]4O[C@H](CO)[C@@H](O)[C@H](O)[C@@H]4O)[C@@H]3O)CC2)nn1)C(=O)N1CCC[C@H]1C(=O)N[C@@H](CC(C)C)C(=O)NCC(=O)N[C@@H](CO)C(=O)NCC(=O)N[C@@H](CO)C(=O)N[C@@H](CC(C)C)C(=O)NCC(=O)N[C@@H](Cc1c[nH]cn1)C(=O)N[C@@H](Cc1c[nH]cn1)C(=O)N[C@@H](Cc1c[nH]cn1)C(=O)N[C@@H](Cc1c[nH]cn1)C(=O)N[C@@H](Cc1c[nH]cn1)C(=O)N[C@@H](Cc1c[nH]cn1)C(=O)N[C@@H](CCCNC(=N)N)C(=O)N[C@@H](CC(=O)O)C(=O)N[C@@H](Cc1ccc(O)cc1)C(=O)N[C@@H](CCCCN)C(=O)N[C@@H](CC(=O)O)C(=O)N[C@@H](CC(=O)O)C(=O)N[C@@H](CC(=O)O)C(=O)N[C@@H](CC(=O)O)C(=O)N[C@@H](CCCCN)C(=O)O)C(C)C)C(C)C)C(C)C)[C@@H](C)O)[C@@H](C)O (stereo partly drawn) [Clone 10V9, XTSIPYTYLNRSLWTNYRVNSWSXSKNVNVXPL] | 85 ± 0.68% | 3.9 ± 0.11 nM | – | – |
| CC[C@H](C)[C@H](NC(=O)[C@H](CCC(=O)O)NC(=O)CNC(=O)[C@H](Cc1c[nH]c2ccccc12)NC(=O)[C@@H](NC(=O)[C@@H](NC(=O)[C@@H]1CCCN1C(=O)[C@H](CCc1cn(C2CCC(OC3O[C@H](CO[C@H]4O[C@H](CO[C@H]5O[C@H](CO)[C@@H](O)[C@H](O)[C@@H]5O[C@H]5O[C@H](CO)[C@@H](O)[C@H](O)[C@@H]5O)[C@@H](O)[C@H](O[C@H]5O[C@H](CO)[C@@H](O)[C@H](O)[C@@H]5O[C@H]5O[C@H](CO)[C@@H](O)[C@H](O)[C@@H]5O)[C@@H]4O)[C@@H](O)[C@H](O[C@H]4O[C@H](CO)[C@@H](O)[C@H](O)[C@@H]4O[C@H]4O[C@H](CO)[C@@H](O)[C@H](O)[C@@H]4O[C@H]4O[C@H](CO)[C@@H](O)[C@H](O)[C@@H]4O)[C@@H]3O)CC2)nn1)NC(=O)[C@H](CC(C)C)NC(=O)[C@H](Cc1ccc(O)cc1)NC(=O)[C@@H](NC(=O)[C@H](Cc1ccc(O)cc1)NC(=O)[C@@H](NC(=O)[C@@H]1CCCN1C(=O)[C@@H](NC(=O)[C@H](CO)NC(=O)[C@H](CC(C)C)NC(=O)[C@H](CCc1cn(C2CCC(OC3O[C@H](CO[C@H]4O[C@H](CO[C@H]5O[C@H](CO)[C@@H](O)[C@H](O)[C@@H]5O[C@H]5O[C@H](CO)[C@@H](O)[C@H](O)[C@@H]5O)[C@@H](O)[C@H](O[C@H]5O[C@H](CO)[C@@H](O)[C@H](O)[C@@H]5O[C@H]5O[C@H](CO)[C@@H](O)[C@H](O)[C@@H]5O)[C@@H]4O)[C@@H](O)[C@H](O[C@H]4O[C@H](CO)[C@@H](O)[C@H](O)[C@@H]4O[C@H]4O[C@H](CO)[C@@H](O)[C@H](O)[C@@H]4O[C@H]4O[C@H](CO)[C@@H](O)[C@H](O)[C@@H]4O)[C@@H]3O)CC2)nn1)NC(=O)[C@H](CCCNC(=N)N)NC(=O)[C@H](Cc1ccccc1)NC(=O)[C@@H]1CCCN1C(=O)[C@H](CC(N)=O)NC(=O)[C@@H](NC(=O)[C@H](CC(N)=O)NC(=O)[C@@H](NC(=O)[C@H](CO)NC(=O)[C@@H](NC(=O)[C@@H](NC(=O)[C@@H](NC(=O)[C@@H]1CCCN1C(=O)[C@H](CC(C)C)NC(=O)[C@@H](NC(=O)[C@H](CCc1cn(C2CCC(OC3O[C@H](CO[C@H]4O[C@H](CO[C@H]5O[C@H](CO)[C@@H](O)[C@H](O)[C@@H]5O[C@H]5O[C@H](CO)[C@@H](O)[C@H](O)[C@@H]5O)[C@@H](O)[C@H](O[C@H]5O[C@H](CO)[C@@H](O)[C@H](O)[C@@H]5O[C@H]5O[C@H](CO)[C@@H](O)[C@H](O)[C@@H]5O)[C@@H]4O)[C@@H](O)[C@H](O[C@H]4O[C@H](CO)[C@@H](O)[C@H](O)[C@@H]4O[C@H]4O[C@H](CO)[C@@H](O)[C@H](O)[C@@H]4O[C@H]4O[C@H](CO)[C@@H](O)[C@H](O)[C@@H]4O)[C@@H]3O)CC2)nn1)NC=O)C(C)C)[C@@H](C)O)[C@@H](C)CC)[C@@H](C)CC)[C@@H](C)O)C(C)C)[C@@H](C)CC)[C@@H](C)O)[C@@H](C)O)[C@@H](C)CC)[C@@H](C)O)C(=O)NCC(=O)N[C@@H](CO)C(=O)NCC(=O)N[C@@H](CO)C(=O)N[C@@H](CC(C)C)C(=O)NCC(=O)N[C@@H](Cc1c[nH]cn1)C(=O)N[C@@H](Cc1c[nH]cn1)C(=O)N[C@@H](Cc1c[nH]cn1)C(=O)N[C@@H](Cc1c[nH]cn1)C(=O)N[C@@H](Cc1c[nH]cn1)C(=O)N[C@@H](Cc1c[nH]cn1)C(=O)N[C@@H](CCCNC(=N)N)C(=O)N[C@@H](CC(=O)O)C(=O)N[C@@H](Cc1ccc(O)cc1)C(=O)N[C@@H](CCCCN)C(=O)N[C@@H](CC(=O)O)C(=O)N[C@@H](CC(=O)O)C(=O)N[C@@H](CC(=O)O)C(=O)N[C@@H](CC(=O)O)C(=O)N[C@@H](CCCCN)C(=O)O (stereo partly drawn) [Clone 10V8, XVLPTIISTNVNPFRXLSIPTYTYLXPITWGEI] | 94 ± 2.0% | 4.6 ± 0.34 nM | – | – |
| For-[X1]PNCITQQDVR[X1]TSIPYTYTWPGSGSLGHHHHHHRDYKDDDDK-OH [Clone 10F3-Δ11, XPNCITQQDVRXTSIPYTYTWP] | – | – | 32% | 25 nM |
